# Test results taken from patent EP0420552A2, “New antifungal antibiotic, and the production and uses of same” (ZAIDAN HOJIN BISEIBUTSU KAGAKU KENKYU KAI, priority 1989, dated 1991).
# What was measured:
# [1] = Solubility in organic solvents
# [2] = Acute toxicity in mice upon intravenous administration; format: in vivo; conditions: ICR mice (female, 4-week old, body weight of 19 to 21 g)
# Description: Dexylosylbenanomicin A is of low toxicity to mammals, as it was shown that for estimation of acute toxicity in mice upon intravenous administration, dexylosylbenanomicin A was administered via the intravenous route to ICR mice (female, 4-week old, body weight of 19 to 21 g), the mice tolerated a dosage of 300 mg/kg of this new antibiotic.
# Cochliobolus miyabeanus = assay: MIC by standard serial dilution method on nutrient agar; format: cell-based; conditions: Bipolaris oryzae, 42 h, pH 7, read-out: Minimum inhibitory concentrations
# Xanthomonas oryzae = assay: microbe, parasite or virus in culture; format: cell-based; conditions: 42 h, pH 7, read-out: Minimum inhibitory concentrations
# Candida Yu-1200 = assay: MIC by standard serial dilution method on nutrient agar; format: cell-based; conditions: YU1200, nutrient agar medium containing 1% glucose (pH 7.0), 27°C, 42 hours, read-out: Minimum inhibitory concentrations
# Description: (§1) The minimum inhibitory concentrations (MIC., mcg/ml) of dexylosylbenanomicin A against a variety of fungi were determined by a standard serial dilution method on a nutrient agar medium containing 1% glucose (pH 7.0) after incubation at 27°C for 42 hours and are shown in Table 1 below.
# [3] = test system: Trichophyton mentagrophytes (883); assay: as above; format: cell-based; conditions: nutrient agar medium containing 1% glucose (pH 7.0), 27°C, 42 hours, read-out: Minimum inhibitory concentrations
# Description: as §1
# [4] = test system: Candida pseudotropicalis F-2; assay: as above; format: cell-based; conditions: Kluyveromyces marxianus, F2, nutrient agar medium containing 1% glucose (pH 7.0), 27°C, 42 hours, read-out: Minimum inhibitory concentrations
# Description: as §1
# [5] = test system: Trichophyton asteroides 429; assay: as above; format: cell-based; conditions: nutrient agar medium containing 1% glucose (pH 7.0), 27°C, 42 hours, read-out: Minimum inhibitory concentrations
# Description: as §1
# Candida albicans 3147 = assay: as above; format: cell-based; conditions: nutrient agar medium containing 1% glucose (pH 7.0), 27°C, 42 hours, read-out: Minimum inhibitory concentrations
# Description: as §1
# Candida krusei F-5 = assay: as above; format: cell-based; conditions: Pichia kudriavzevii, F5, nutrient agar medium containing 1% glucose (pH 7.0), 27°C, 42 hours, read-out: Minimum inhibitory concentrations
# Description: as §1
# Aspergillus niger F-16 = assay: as above; format: cell-based; conditions: F16, nutrient agar medium containing 1% glucose (pH 7.0), 27°C, 42 hours, read-out: Minimum inhibitory concentrations
# Description: as §1
# Candida tropicalis F-1 = assay: as above; format: cell-based; conditions: F1, nutrient agar medium containing 1% glucose (pH 7.0), 27°C, 42 hours, read-out: Minimum inhibitory concentrations
# Description: as §1
# Pellicularia sasakii = assay: as above; format: cell-based; conditions: nutrient agar medium containing 1% glucose (pH 7.0), 27°C, 42 hours, read-out: Minimum inhibitory concentrations
# Description: as §1
# [6] = test system: Cryptococcus neoformans F-10; assay: as above; format: cell-based; conditions: F10, nutrient agar medium containing 1% glucose (pH 7.0), 27°C, 42 hours, read-out: Minimum inhibitory concentrations
# Description: as §1
# [7] = test system: Saccharomyces cerivisiae F-7; assay: as above; format: cell-based; conditions: F7, nutrient agar medium containing 1% glucose (pH 7.0), 27°C, 42 hours, read-out: Minimum inhibitory concentrations
# Description: as §1
# Xanthomonas citri = assay: as above; format: cell-based; conditions: 42 h, pH 7, read-out: Minimum inhibitory concentrations
# Pyricularia oryzae = assay: microbe, parasite or virus in culture; format: cell-based; conditions: 42 h, pH 7, read-out: Minimum inhibitory concentrations
compound,measurement,setting,value
COc1cc(O)c2c(c1)C(=O)c1c(cc3c(c1O)-c1c(cc(C)c(C(=O)N[C@H](C)C(=O)O)c1O)[C@H](O[C@@H]1O[C@H](C)[C@H](O)[C@H](O)[C@H]1O)[C@H]3O)C2=O [dexylosylbenanomicin A],Solubility,"[1]; in chloroform, ethyl acetate, acetone and methanol",Sparingly soluble
same,Solubility,"[1]; in dimethyl sulfoxide and N,N-dimethylformamide",soluble
same,acute toxicity: tolerated dosage,[2],300 mg/kg
same,MIC,Cochliobolus miyabeanus,> 25 µg/mL
same,MIC,Xanthomonas oryzae,100 µg/mL
same,MIC,Candida Yu-1200,6.25 µg/mL
same,MIC,[3],> 25 µg/mL
same,MIC,[4],3.13 µg/mL
same,MIC,[5],> 25 µg/mL
same,MIC,Candida albicans 3147,12.5 µg/mL
same,MIC,Candida krusei F-5,50 µg/mL
same,MIC,Aspergillus niger F-16,50 µg/mL
same,MIC,Candida tropicalis F-1,12.5 µg/mL
same,MIC,Pellicularia sasakii,25 µg/mL
same,MIC,[6],12.5 µg/mL
same,MIC,[7],3.13 µg/mL
same,MIC,Xanthomonas citri,> 100 µg/mL
same,MIC,Pyricularia oryzae,50 µg/mL
